The numbers were not newly measured in paper PMC3459150 (Atherosclerosis, 2012), which cites them from elsewhere.

For series [1] the following is noted: apo E null mice.
Series [2] deals with dyslipidemic mouse models.
Another series deals with apoE null mice. To be noted: chronic administration.

For the sequence DWFKAFYDKVAEKFKEAF [4F], the Half-time of clearance in series [1] (peritoneally-injected) is 2.01 h. Further, in series [2], the Inhibition of atherosclerosis entry was “able to inhibit atherosclerosis” and the Plasma cholesterol levels entry is on record as “without changing plasma cholesterol levels”.
In the case of “LRKLRKRLLRDWLKAFYDKVAEKLKEAF [Ac-hE18A-NH2]”, in series [1] (intravenous, bi-phasic), the “Half-time of clearance, rapid phase” value is listed as 0.027 h and the “Half-time of clearance, slow phase” value is on record as 1.61 h. The “Atheroprotection / inhibition of atherosclerosis” value with apoE null mice is recorded as “inhibits atherosclerosis”.
